Reference: US20250215052A1, “INHIBITORS OF PICK1 AND USES THEREOF” (University of Copenhagen, priority 2018, published 2025)

Tests used:
[1] = FPLC size exclusion chromatography of CPP variants in PBS; type: physicochemical; settings: Superdex 200 Increase 10/300, relative to P4-(C5)2
Description: All samples were run in a 200 μL volume on a Superdex 200 Increase 10/300 column on an AKTA purifier FPLC system. The absorbance at 280 nm as a function of elution volume was normalized to the maximal absorbance of each peptide and plotted using GraphPadPrism 7.0.

PICK1 = target: T1, PICK1 (Rattus norvegicus, UniProt Q9EP80); test: biochemical; type: binding; settings: for Fold affinity change: compared to TAT-P4-(C5)2
T1 construct: made in house; host or cells: E. coli BL21-DE3-pLysS
T1 sequence (Q9EP80 whole entry): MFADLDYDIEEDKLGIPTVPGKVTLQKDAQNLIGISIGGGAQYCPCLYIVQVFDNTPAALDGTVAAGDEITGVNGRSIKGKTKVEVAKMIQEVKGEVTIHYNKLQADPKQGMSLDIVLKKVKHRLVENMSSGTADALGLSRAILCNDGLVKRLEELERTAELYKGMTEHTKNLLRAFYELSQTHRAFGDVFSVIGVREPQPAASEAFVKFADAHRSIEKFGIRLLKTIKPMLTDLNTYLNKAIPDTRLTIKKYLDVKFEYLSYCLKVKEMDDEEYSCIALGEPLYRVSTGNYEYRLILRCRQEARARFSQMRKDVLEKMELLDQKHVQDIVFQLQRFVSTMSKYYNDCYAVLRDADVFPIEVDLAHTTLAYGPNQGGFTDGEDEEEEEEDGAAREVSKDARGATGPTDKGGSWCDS
Description: The data was plotted in GraphPad Prism 7.0 and fitted to a ‘One site-Fit’ Ki curve and the apparent affinities (Ki) for the unlabelled peptides were determined using correction for depletion.

SNI mice [2] = test: SNI neuropathic pain model, subcutaneous administration, Von Frey; type: in vivo; settings: 10 μmol/kg s.c.
Description: Mice: 8 weeks old C57BI6J mice (from Charles River)
10 μmol/kg peptide solution was subcutaneously administered (100 μL/10 g).
Spared Nerved Injury surgery: The surgery was performed on anaesthetized mice. A complete ligature and transection of the common peroneal and tibial distal branches of the sciatic nerve was performed, leaving the sural branch intact. The operated side is referred to as the ipsilateral side and the non-operated side is referred to as the contralateral side. 7 days post-surgery, a decrease of threshold response to Von Frey filaments of ipsilateral hind paw was observed.
Mechanical threshold response: The mechanical threshold response of the operated mice was measured with calibrated Von Frey filaments using up/down method, and the 50% threshold (g) was calculated (see equation 1). Mechanical pain responses are defined as paw withdrawal, flinching and/or paw licking following filament prick. The experimenter was blinded to mice treatment. One baseline measure was performed before surgery, one measure 7 days after surgery (D+7) before drug's administration. One measure was performed 1 h, 2 h, 3 h and 4 h post drug administration. n=8 mice/timepoint for peptide treatment.
Statistical analysis: Statistical analysis was performed using Graphpad Prism 7.0. Pain threshold, measured as paw withdrawal threshold, was compared between time “before drug effect” and time points after drug administration (+1, +2, +3, +4 hrs), or against vehicle control (all time points). Two-way RM ANOVA followed by Dunnet's multiple comparison tests. Significance level set to p<0.05.

PBS stability = type: physicochemical; settings: 37° C., 24 hrs
Description: (§1) 360 μL undiluted human male serum (Sigma; H4522) or PBS was kept at 37° C. for 15 min, followed by addition of 40 μL (500 uM) of relevant peptide and subsequent incubation at 37° C. For stability analysis, 45 μL samples was taken out at t=0 min and t=24 hrs, and samples quenched by addition of 50 μL 6M urea followed by incubation at 37° C. for additional 30 min. 50 μL 20% TCA (W7V) in acetone was added to each sample before incubation for at least 16 hrs at 5° C. Samples were centrifuged at 14.000×g for 30 min and supernatants collected and filtered using a 0.22 μm syringe filter. Samples were analyzed on an Acquity UPLC H-Class instrument using a C18 column with a 15 min 10-80% […] gradient. Remaining analyte (%) was calculated as the area under curve (AUC) of the main peak at indicated time points relative to the sample at t=0 min.

Plasma stability = type: in vitro ADME; settings: human, 37° C., 24 h incubation
Description: as §1

PICK1 PDZ domain = target: T2, PICK1 PDZ domain (Rattus norvegicus, UniProt Q9EP80); test: Fluorescence polarization competition binding to PICK1 (Example 1); settings: PEGx dimerization of C5
T2 construct: made in house; host or cells: E. coli BL21-DE3-pLysS
T2 sequence (Q9EP80 whole entry, the tested form may be a part): as the sequence (Q9EP80 whole entry) above
Description: Protein expression was induced with 10 mM Isopropyl β-D-1-thiogalactopyranoside (IPTG) and grown overnight at 20° C. […] Resuspended pellet was frozen at −80° C. to induce cell lysis. The bacterial suspension was thawed and cleared by centrifugation. The supernatant was collected and incubated with Glutathione-Sepharose 4B beads for 2 hrs at 4° C. under gentle rotation. […] Washed beads were transferred to a PD10 gravity column. Bead solution was incubated with thrombin protease overnight at 4° C. under gentle rotation.
Fluorescence polarization was carried out in saturation mode and competition mode.

SNI mice [3] = test: Spared nerve injury (SNI) model, Von Frey test, intrathecal or i.p. administration; type: in vivo
Description: Spared nerve injury model (SNI) was performed according to methods described in Richner et al., 2011. Briefly, under isoflurane (2%) anaesthesia, the skin on the left lateral surface of the thigh was incised and the biceps femoris muscle was divided and spread lengthwise to expose the three branches of the sciatic nerve. After exposing the three branches (common peroneal, tibial and sural) in anesthetized mice, the common peroneal and tibial branches were carefully segregated from surrounding tissues, tightly ligated and axotomized ˜2 mm of the distal nerve stump, while the sural branch was left intact.
Drugs were administered either intrathecally to anesthetized mice or intraperitoneally (i.p.).
The development and level of mechanical threshold was determined in the affected hind paws 2 days after the SNI procedure by using Von Frey filaments ranging from 0.02 to 1.4 g. In the current experiments filaments in ascending order were applied to the lateral part of the hind paws. Each Von Frey hair was applied five times over a total period of 30 seconds and the mouse's reaction was assessed after each application; the threshold for a positive test was set at 3 trials, which evoked responses out of a maximum of 5 trials. […] Forces of the instrument are measured with units “g” and represent the gram-forces. […]

[4] = target: T3, PICK1 pre-bound to TacDAT C24 (Rattus norvegicus, UniProt Q9EP80); test: SCMS dissociation of pre-bound PICK1; type: binding; settings: pre-bound PICK1 on TacDAT C24 SCMS
T3 construct: Partner: transfected HEK293-GT cells, ruptured into membrane sheets
T3 sequence (Q9EP80 whole entry): as above
Description: Human Embryo Kidney 293 GripTite cells (HEK293-GT) for SCMS were grown i in Dulbecco's modified Eagle's medium 1965 with fetal calf serum and pen-strep antibiotics. Cells were transfected using TAC-YFP-DATC24 DNA (pEYFP-C1 vector) and lipovectamin in opti-MEM® overnight. Cells were washed once with PBS and detached using 0.5% Trypsin with EDTA. Cells were then seeded into 6-well plates and allowed to grow and attach overnight at 37° C. in humidified 10% CO2 atmosphere.
The SCMS was prepared as described in (Perez et al., 2006). In brief, round cover glasses were plasma cleaned and coated with 0.3 mM poly-L-ornithine hydrobromide (Poly-ORN) for 30 min. The coating Poly-ORN was then removed. Seeded and transfected cells were then washed twice to allow them to swell. The swelled cells were then covered with the cover glass with the Poly-ORN coated side facing down on the cells. Dynamic pressure was manually applied to the cover glass using the piston from a 12 ml plastic syringe for a total of 1 min. The force from removing the cover glass causes some cells to rupture and leave a SCMS on the surface of the cover glass. […] A protein solution was then added to the cover glass and left to incubate for the desired amount of time depending on the experiment. […] The protein: peptide solution was then added to the SCMS-cover glass and incubated for 2 hours. […]

CC(C)C[C@H](NC(=O)[C@H](C)NC(=O)[C@H](CCCCN)NC(=O)[C@H](CC(C)C)NC(=O)[C@H](C)NC(=O)[C@H](CC(C)C)NC(=O)[C@H](CCCCN)NC(=O)[C@H](CC(C)C)NC(=O)[C@H](C)NC(=O)[C@H](CC(C)C)NC(=O)[C@@H](N)CCCCN)C(=O)N[C@@H](CCCCN)C(=O)N[C@@H](C)C(=O)N[C@@H](C)C(=O)N[C@@H](CC(C)C)C(=O)N[C@@H](CCCCN)C(=O)N[C@@H](CC(C)C)C(=O)N[C@@H](C)C(=O)N(CCOCCOCCC(=O)N[C@@H](Cc1c[nH]cn1)C(=O)N[C@@H](Cc1c[nH]c2ccccc12)C(=O)N[C@@H](CC(C)C)C(=O)N[C@@H](CCCCN)C(=O)N[C@H](C(=O)O)C(C)C)CCOCCOCCC(=O)N[C@@H](Cc1c[nH]cn1)C(=O)N[C@@H](Cc1c[nH]c2ccccc12)C(=O)N[C@@H](CC(C)C)C(=O)N[C@@H](CCCCN)C(=O)N[C@H](C(=O)O)C(C)C [MAP-P4-(C5)2]
in-solution oligomeric behavior from elution volume [1]: forms higher oligomeric structures than P4-(C5)2 | Ki (PICK1): 5.1 nM | Fold affinity change (PICK1): 0.8 fold | ipsilateral paw mechanical threshold compared to before drug administration (SNI mice [2]; 1 h): significant increase | ipsilateral paw mechanical threshold compared to before drug administration (SNI mice [2]; 2 h): significant increase | ipsilateral paw mechanical threshold compared to vehicle (SNI mice [2]; 2 h): significant increase

CC(C)C[C@H](NC(=O)[C@H](Cc1c[nH]c2ccccc12)NC(=O)[C@H](Cc1cnc[nH]1)NC(=O)[C@H](CCCNC(=N)N)NC(=O)[C@H](CCCNC(=N)N)NC(=O)[C@H](CCCNC(=N)N)NC(=O)[C@H](CCC(N)=O)NC(=O)[C@H](CCCNC(=N)N)NC(=O)[C@H](CCCNC(=N)N)NC(=O)[C@H](CCCCN)NC(=O)[C@H](CCCCN)NC(=O)[C@H](CCCNC(=N)N)NC(=O)CNC(=O)[C@@H](N)Cc1ccc(O)cc1)C(=O)N[C@@H](CCCCN)C(=O)N[C@H](C(=O)O)C(C)C [TAT-C5]
stability in PBS (PBS stability): good stability in PBS | plasma stability (Plasma stability): improved

CC[C@H](C)[C@H](NC(=O)[C@H](CCCCN)NC(=O)CNC(=O)[C@H](CC(C)C)NC(=O)[C@H](CC(C)C)NC(=O)[C@H](Cc1ccc(O)cc1)NC(=O)CNC(=O)[C@H](C)NC(=O)[C@H](CO)NC(=O)[C@H](CC(N)=O)NC(=O)[C@H](CC(C)C)NC(=O)[C@@H](NC(=O)[C@H](Cc1c[nH]c2ccccc12)NC(=O)CN)[C@@H](C)O)C(=O)N[C@@H](CC(N)=O)C(=O)N[C@@H](CC(C)C)C(=O)N[C@@H](CCCCN)C(=O)N[C@@H](C)C(=O)N[C@@H](CC(C)C)C(=O)N[C@@H](C)C(=O)N[C@@H](C)C(=O)N[C@@H](CC(C)C)C(=O)N[C@@H](C)C(=O)N[C@@H](CCCCN)C(=O)N[C@@H](CCCCN)C(=O)N[C@H](C(=O)N[C@@H](CC(C)C)C(=O)N(CCOCCOCCC(=O)N[C@@H](Cc1c[nH]cn1)C(=O)N[C@@H](Cc1c[nH]c2ccccc12)C(=O)N[C@@H](CC(C)C)C(=O)N[C@@H](CCCCN)C(=O)N[C@H](C(=O)O)C(C)C)CCOCCOCCC(=O)N[C@@H](Cc1c[nH]cn1)C(=O)N[C@@H](Cc1c[nH]c2ccccc12)C(=O)N[C@@H](CC(C)C)C(=O)N[C@@H](CCCCN)C(=O)N[C@H](C(=O)O)C(C)C)[C@@H](C)CC [TP10-P4-(C5)2]
in-solution oligomeric behavior from elution volume [1]: smaller oligomers than P4-(C5)2 or direct interaction with the column material | Fold affinity change (PICK1): 0.5 fold | ipsilateral paw mechanical threshold compared to before drug administration (SNI mice [2]; 2 h): significant increase | ipsilateral paw mechanical threshold compared to vehicle (SNI mice [2]; 2 h): significant increase

CC(C)C[C@H](NC(=O)[C@H](Cc1c[nH]c2ccccc12)NC(=O)[C@H](Cc1c[nH]cn1)NC(=O)CCOCCOCCOCCOCCOCCC(=O)N[C@@H](Cc1c[nH]cn1)C(=O)N[C@@H](Cc1c[nH]c2ccccc12)C(=O)N[C@@H](CC(C)C)C(=O)N[C@@H](CCCCN)C(=O)N[C@H](C(=O)O)C(C)C)C(=O)N[C@@H](CCCCN)C(=O)N[C@H](C(=O)O)C(C)C [P4-(C5)2, PEG4-(HWLKV)2]
fold increase in affinity compared to monomeric C5 (PICK1 PDZ domain): 15 fold

CC[C@H](C)[C@H](NC(=O)[C@H](CCCCN)NC(=O)[C@@H](NC(=O)[C@H](CCC(N)=O)NC(=O)[C@@H](N)CCCNC(=N)N)[C@@H](C)CC)C(=O)N[C@@H](Cc1c[nH]c2ccccc12)C(=O)N[C@@H](Cc1ccccc1)C(=O)N[C@@H](CCC(N)=O)C(=O)N[C@@H](CC(N)=O)C(=O)N[C@@H](CCCNC(=N)N)C(=O)N[C@@H](CCCNC(=N)N)C(=O)N[C@@H](CCSC)C(=O)N[C@@H](CCCCN)C(=O)N[C@@H](Cc1c[nH]c2ccccc12)C(=O)N[C@@H](CCCCN)C(=O)N[C@@H](CCCCN)C(=O)N(CCOCCOCCC(=O)N[C@@H](Cc1c[nH]cn1)C(=O)N[C@@H](Cc1c[nH]c2ccccc12)C(=O)N[C@@H](CC(C)C)C(=O)N[C@@H](CCCCN)C(=O)N[C@H](C(=O)O)C(C)C)CCOCCOCCC(=O)N[C@@H](Cc1c[nH]cn1)C(=O)N[C@@H](Cc1c[nH]c2ccccc12)C(=O)N[C@@H](CC(C)C)C(=O)N[C@@H](CCCCN)C(=O)N[C@H](C(=O)O)C(C)C [PNT-P4-(C5)2]
in-solution oligomeric behavior from elution volume [1]: smaller oligomers than P4-(C5)2 or direct interaction with the column material | ipsilateral paw mechanical threshold compared to before drug administration (SNI mice [2]; any time-point): did not show significant increase | ipsilateral paw mechanical threshold compared to vehicle (SNI mice [2]; any time-point): no significant increase

CCOC(=O)NC(=O)/C(C#N)=C/c1ccc(Cl)c(Cl)c1 [FSC231]
mechanical hypersensitivity / withdrawal threshold, acute phase (SNI mice [3]; intrathecal, two days after operation): did not affect withdrawal threshold

CC(C)C[C@H](NC(=O)[C@H](Cc1c[nH]c2ccccc12)NC(=O)[C@@H](N)Cc1cnc[nH]1)C(=O)N[C@@H](CCCCN)C(=O)N[C@H](C(=O)O)C(C)C [C5, HWLKV]
dissociation of pre-bound PICK1 from SCMSs [4]: neither C5 nor TAT-(C5) could significantly dissociated PICK1 from SCMSs | stability in PBS (PBS stability): good stability in PBS | plasma stability (Plasma stability): full degradation

NCC1(CC(=O)O)CCCCC1 [gabapentin]
mechanical hypersensitivity, chronic phase (SNI mice [3]; 30 mg/kg i.p., day 14 after surgery, at 2 hours): full recovery from mechanical hypersensitivity
